Results taken from US20130202594A1, “ALK1 Antagonists and Their Uses in Treating Renal Cell Carcinoma” (priority 2012, published 2013).
pKd: −log10 of the molar value. “Also recorded” adds a separate entry of the source.

Experiments:
TGFβ = TGFβ (Homo sapiens, UniProt P01137); assay: Biacore binding to hALK1-Fc: TGFβ
Procedure: (§1) ALK1 is a type 1 receptor for ligands of the TGFβ family. Multiple members of the TGFβ family were tested for binding to a human ALK1-Fc fusion protein, using a Biacore™ system.

[1] = system: SMAD 1/5/8 phosphorylation in HUVEC cells; assay: rhBMP-9 induced SMAD 1/5/8 phosphorylation in HUVEC cells; type: cell-based, human; details: 250 ng/ml, rhBMP-9 50 ng/ml
Procedure: Activation of SMAD phosphorylation is commonly used to assay activation of upstream activin receptors. ALK1 is known to modulate phosphorylation of SMAD proteins 1,5 and 8 upon activation by its ligand. Here, we added rhBMP-9 (50 ng/ml) to initiate SMAD phosphorylation in HUVEC cells, a human endothelial cell line which innately expresses ALK1 receptor, over a timecourse of 30 minutes. Phosphorylation of SMAD 1/5/8 was seen 5 minutes after treatment of cells with ligand and phosphorylation was maintained for the entirety of the 30 minute period.

GDF11 = GDF11 (Homo sapiens, UniProt O95390); assay: Biacore binding to hALK1-Fc: GDF11
Procedure: as §1

endothelial cells = assay: Endothelial cell tube forming assay on Matrigel with ECGS; type: cell-based; details: for tube formation compared with endostatin: endostatin 100 ng/ml
Source text: In order to evaluate the angiogenic effect of ALK1-Fc in an in vitro system, we assayed the effectiveness of the compound in reducing tube formation of endothelial cells on a Matrigel substrate. This technique is commonly used to assess neovascularization, giving both rapid and highly reproducible results. Endothelial Cell Growth Supplement (ECGS) is used to induce the formation of microvessels from endothelial cells on Matrigel, and the efficacy of anti-angiogenic compounds are then gauged as a reduction of cord formation in the presence of both the drug and ECGS over an 18 hour timecourse. As expected, addition of ECGS (200 ng/ml) induced significant cord formation, as compared to the negative control (no treatment added), which indicates basal levels of endothelial cell cord formation produced on Matrigel substrate (FIG. 5).

[2] = Size exclusion chromatography of ALK1-Fc preparations (dimers vs aggregates); type: physicochemical
Procedure: The R&D Systems material contains approximately 13% aggregated protein, as shown by the peaks on the left hand side of the graph, as well as some lower molecular weight species. The material of SEQ ID NO:3 is greater than 99% composed of dimers of the appropriate molecular size.
In one approach, a number of different cell culture media were tested. […] The resulting material is comprised of greater than 99% dimers. […] Having identified aggregate formation as a significant problem in ALK1-Fc production, it is expected that other approaches may be developed, including approaches that involve additional purification steps (although such approaches may result in lower yield of purified protein).

[3] = system: BMP10 signaling (Smad1/5/8 reporter) in T98G cells; assay: BMP10 signaling reporter assay in T98G cells transfected with ALK1; type: cell-based, human; details: 65 ng/ml, BMP10 1 ng/ml
Procedure: Effects of hALK-Fc on BMP10 signaling were determined in a cell-based assay, in which human glioblastoma T98G cells were transfected with three plasmids: 1) an expression construct encoding full-length ALK1; 2) a firefly-luciferase reporter construct (see Example 3) responsive to Smad1/5/8-mediated signaling, and 3) a Renilla-luciferase control construct. Treatment of transfected cells with recombinant human BMP10 (1 ng/ml) strongly stimulated firefly luciferase activity relative to Renilla luciferase activity (FIG. 16). Omission of the ALK1 expression construct reduced BMP10-stimulated activity by approximately two-thirds (data not shown), thus implicating ALK1 as a major mediator of the BMP10 signal. Treatment of fully transfected cells with hALK1-Fc (65 ng/ml) and BMP10 (1 ng/ml) reduced the transcriptional response compared to BMP10 alone by more than 80% (FIG. 16).

786-0 cells = assay: 786-0 human RCC tumor xenograft model; type: in vivo, mouse; details: sunitinib 53.6 mg/kg gavage 6 of 7 days; ALK1-Fc 10 mg/kg IP 3 times per week
Procedure: 786-0 cells, a von Hippel Lindau (VHL)-deficient human renal cell carcinoma (RCC) cell line (see Iliopoulos et al., Nature Medicine 1995; 1:822-6), was obtained from the American Type Culture Collection, and cultured in RPMI 1640 medium (Cellgro). Media was supplemented with 2 mmol/L L-glutamine, 10% FCS, and 1% streptomycin (50 μg/mL), and cells were cultured at 37° C. with 5% CO2. 786-0 cells were harvested from subconfluent cultures by a brief exposure to 0.25% trypsin and 0.02% EDTA. Trypsinization was stopped with medium containing 10% fetal bovine serum and the cells were washed once in serum-free medium and resuspended in PBS. Only suspensions consisting of single cells with >90% viability were used for the injections.
To establish human RCC xenografts, 786-0 tumor cells were injected subcutaneously (1×10^7 cells) into the flanks of 6- to 8-week-old female athymic nude/beige mice (Charles River Laboratories) that were of 20 g average body weight. Tumors developed in >80% of the mice and were usually visible within a few days of implantation. Mice were treated with vehicle plus Fc, sunitinib plus Fc, vehicle plus ALK-Fc, or sunitinib plus ALK-Fc when the tumors had grown to a diameter of 12 mm. Sunitinib (53.6 mg/kg; Pfizer) was administered 6 of 7 days per week by gavage beginning. […] Tumors were measured every two days while mice were on treatment.

BMP10 = target: T1, BMP10 (Homo sapiens, UniProt O95393); assay: Biacore binding to hALK1-Fc: BMP10
T1 sequence (O95393 317-424): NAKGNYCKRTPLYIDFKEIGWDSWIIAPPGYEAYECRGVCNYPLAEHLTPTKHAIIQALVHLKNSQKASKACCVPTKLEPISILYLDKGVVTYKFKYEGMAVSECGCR
Procedure: as §1

MCF-7 cell line = assay: MCF-7 orthotopic breast cancer xenograft; type: in vivo, mouse; details: 10 or 30 mg/kg twice per week IP
Procedure: The estrogen-receptor-positive (ER+), luciferase expressing cell line, MCF-7, was also tested in an orthotopic implantation model. In this model, female nude mice are implanted subcutaneously with a 60 day slow release pellet of 17β-estradiol. Two days following pellet implantation, 5×10^6 MCF-7 tumor cells were implanted into the mammary fat pad. Mice were treated twice per week with hALK1-Fc at 3, 10 and 30 mg/kg, or vehicle control, by the IP route. Tumor progression was followed by bioluminescent imaging on a weekly basis with an IVIS-Spectrum imager (Caliper Life Sciences). In vehicle treated mice tumors progressed rapidly until study day 26 (FIG. 15). After day 26, there were fluctuations in tumor luminescence until the conclusion of the study at day 60 (when the estradiol pellets were depleted). These fluctuations are due to a common feature of this model in that the rapid tumor growth can exceed the angiogenic response of the host animals leading to tumor necrosis and a concomitant drop-off in luminescent signal. The remaining cells continue to grow leading to an increased signal.

Chain of GDF11 (O95390 299-407, species assumed): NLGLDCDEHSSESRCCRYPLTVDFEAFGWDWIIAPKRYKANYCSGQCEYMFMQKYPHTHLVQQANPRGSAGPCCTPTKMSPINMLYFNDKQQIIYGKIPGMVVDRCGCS
Chain of TGFβ (P01137 279-390): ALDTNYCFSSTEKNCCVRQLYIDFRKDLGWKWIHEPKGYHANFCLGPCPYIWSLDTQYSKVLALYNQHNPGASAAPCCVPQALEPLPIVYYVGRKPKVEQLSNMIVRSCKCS

binding to hALK1-Fc (TGFβ): failed to show substantial binding
binding to hALK1-Fc (GDF11): failed to show substantial binding
pKd (BMP10): ~8.52
Substance: hALK1-Fc: extracellular domain of human ALK1 (amino acids 22-120) fused to a human IgG1 Fc with a minimal linker (SEQ ID NO:3/14)
SMAD 1/5/8 phosphorylation [1]: SMAD 1/5/8 phosphorylation was reduced
cord formation (endothelial cells; 100 ng/ml, ECGS 200 ng/ml, 18 hour): cord formation was visibly reduced
tube formation compared with endostatin (endothelial cells; ECGS): more potent anti-angiogenic activity than the negative control endostatin
tube formation compared with endostatin (endothelial cells; ECGS, listed as ACE): to a greater degree than the positive control, Endostatin
neovascularization (quantification of vessel length) (endothelial cells; every concentration, ECGS): reduced neovascularization to basal levels
dimers [2]: greater than 99%
reduction of transcriptional response compared to BMP10 alone [3]: more than 80%
tumor growth (786-0 cells): trended toward inhibiting tumor growth as a single agent
tumor size / growth (bioluminescence) (MCF-7 cell line): maintain tumor size at a constant level; also recorded: significant growth-delaying effect
